In publication PMC10939466, “A transferrin receptor targeting dual-modal MR/NIR fluorescent imaging probe for glioblastoma diagnosis” (Regenerative Biomaterials, 2024):
Square brackets hold non-standard residues; d marks the D form. Peptide text beside a SMILES is read from it.

Tests used:
[1] = test system: BBB model in vitro (bEnd.3 cells co-cultured with U87-MG cells); assay: Sodium fluorescein permeability of the in vitro BBB model; format: in vitro ADME; settings: transwell 3 µm pore, 0.33 cm^2, bEnd.3 upper / U87-MG lower chamber; NaFl 10 µg/mL; 30, 60, 90 min; 37°C; fluorescence 485/535 nm
Procedure: A primary BBB model using bEnd.3 cells in vitro was established to evaluate the penetration ability of ^DTHR-Cy7-PEG-DSPE-SPIONs. The inner side of a polycarbonate transwell (Millipore, USA) with a mean pore size of 3 µm and a surface area of 0.33 cm^2 was coated with collagen. After coating, the transwell was left to air dry for 30 min. Then, bEnd.3 cells (5 × 10^4 cells per well) were seeded into the upper chamber of a 24-well transwell plate. After 48 h, 1 × 10^5 U87-MG cells were seeded in the lower chamber of each well. Both cells were co-cultured for 1 week.
The endothelial permeability coefficient of sodium fluorescein (NaFl) was used to evaluate the function of BBB model in vitro, as previously described. In brief, 200 µL NaFl solution (10 µg/mL) and 900 µL PBS were added to the upper and lower chambers of the BBB models, respectively. And then cultured in a 5% CO2 atmosphere at 37°C. Following incubation periods of 30, 60 and 90 min, 100 µL samples from the lower chambers were transferred to a new 96-well plate. […] Finally, the relative fluorescence intensity of the samples was measured using a multi-detector monochromator microplate reader (485/535 nm), with NaFl concentration deduced from a standard curve. The apparent permeability coefficient (Papp) was calculated using the formula: Papp=dQ/dt×1/(A×C0). […]

[2] = Cellular uptake of the peptides; format: cell-based

O=C([O-])c1ccccc1-c1c2ccc(=O)cc-2oc2cc([O-])ccc12.[Na+].[Na+] [NaFl, sodium fluorescein]
Papp of NaFl, BBB model [1]: 11.24 ± 0.73 ×10^−6 cm/s

CSCC[C@@H](NC(=O)[C@@H](Cc1c[nH]c2ccccc12)NC(=O)[C@@H](CO)NC(=O)[C@H]1CCCN1C(=O)[C@H](NC(=O)[C@@H](Cc1c[nH]c2ccccc12)NC(=O)[C@H]1CCCN1C(C)=O)C(C)C)C(=O)N1CCC[C@@H]1C(=O)N1CCC[C@@H]1C(=O)N[C@H](CCCNC(=N)N)C(=O)N[C@H](Cc1c[nH]cn1)C(=O)N[C@@H](C(=O)O)[C@H](C)O [^DTHR, Ac-pwvpswmpprht-COOH] (Ac-[dP][dW][dV][dP][dS][dW][dM][dP][dP][dR][dH][dT]-OH)
cellular uptake compared to THR [2]: lower cellular uptake
